Test results published in patent publication US20050164370A1 (priority 2003, published 2005).

Tests used:
cytokinin receptor AHK2 = molecular target: T1, cytokinin receptor AHK2 (Arabidopsis thaliana, UniProt Q9C5U2); assay: Agonist-activity to cytokinin receptor, optical density of TM182-AHK2 liquid culture; format: cell-based, yeast; parameters: expressed in transfected cells; host or cells: yeast strain TM182 carrying plasmid p415CYC-AHK2 (pHM-1 backbone, CYC1 promoter); conditions: TM182-AHK2, examinee substance 100 μM, DOLU+Glu, 30° C. for 24 hours
T1 sequence (Q9C5U2 1-1176): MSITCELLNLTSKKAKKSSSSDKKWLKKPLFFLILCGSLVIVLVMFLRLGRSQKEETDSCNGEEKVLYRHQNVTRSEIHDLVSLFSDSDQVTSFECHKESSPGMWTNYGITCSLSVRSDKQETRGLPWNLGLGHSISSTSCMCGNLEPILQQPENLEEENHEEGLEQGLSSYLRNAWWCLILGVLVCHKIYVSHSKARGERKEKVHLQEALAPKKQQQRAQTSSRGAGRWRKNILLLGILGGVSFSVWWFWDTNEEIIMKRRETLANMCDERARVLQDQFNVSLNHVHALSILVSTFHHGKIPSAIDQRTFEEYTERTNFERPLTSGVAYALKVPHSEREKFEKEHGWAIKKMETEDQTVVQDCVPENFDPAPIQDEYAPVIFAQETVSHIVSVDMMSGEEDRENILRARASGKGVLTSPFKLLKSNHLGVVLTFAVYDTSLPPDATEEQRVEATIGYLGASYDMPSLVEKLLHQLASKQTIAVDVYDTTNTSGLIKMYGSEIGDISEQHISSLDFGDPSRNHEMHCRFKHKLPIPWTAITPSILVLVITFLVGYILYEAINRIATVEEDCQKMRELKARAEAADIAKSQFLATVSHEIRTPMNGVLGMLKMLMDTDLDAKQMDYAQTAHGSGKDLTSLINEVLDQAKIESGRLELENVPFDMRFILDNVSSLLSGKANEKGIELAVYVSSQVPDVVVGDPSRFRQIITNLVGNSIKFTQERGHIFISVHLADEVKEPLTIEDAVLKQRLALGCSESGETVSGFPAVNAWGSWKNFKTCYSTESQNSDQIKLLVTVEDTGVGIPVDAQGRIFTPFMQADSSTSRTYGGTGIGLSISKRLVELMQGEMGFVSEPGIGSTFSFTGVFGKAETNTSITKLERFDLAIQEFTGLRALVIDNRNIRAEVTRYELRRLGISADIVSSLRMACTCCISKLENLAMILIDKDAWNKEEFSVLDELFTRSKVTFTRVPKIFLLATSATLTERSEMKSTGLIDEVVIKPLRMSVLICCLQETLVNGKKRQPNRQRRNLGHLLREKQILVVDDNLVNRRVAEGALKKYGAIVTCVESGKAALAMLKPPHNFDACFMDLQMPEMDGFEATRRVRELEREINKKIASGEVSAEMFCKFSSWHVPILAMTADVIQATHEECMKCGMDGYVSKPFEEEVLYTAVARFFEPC
Method: The transformed cells TM182-AHK2, TM182-AHK2Δ and TM182-AHK3 produced in the reference example 1 were inoculated in 200 ml of DOLU+Gal culture media and pre-cultured at 30° C. for 36 hours. The pre-cultured solutions were diluted with DOLU+Glu media as to become 0.100 as the optical density (OD600) and further the resultants were diluted with DOLU+Glu media at a dilution rate of 1/200 to obtain diluted pre-cultured solutions.
An assay plate was prepared by filling respective wells of a 96-well plate with 20 μl of solutions which were prepared by diluting DMSO solution (10 mM) of each examinee substance with DOLU+Glu medium at a dilution rate of 1/100, said solutions containing each examinee substance to be […]. […]
The diluted pre-cultured solutions were added in 200 μl each into the respective wells of both assay plates and cultured at 30° C. for 24 hours and then the optical density (OD620) of each well was measured by a plate reader. The agonist-activity of the examinee substances to the cytokinin receptor was detected by comparing the optical density measured in the testing sections to which the examinee substances were added with the optical density measured in the blank sections.

[1] = tested on: transformed cells TM182-CYC1-ADHIPT4; conditions: TM182-CYC1-ADHIPT4, DOHLU+Glu agar containing 10 μM trans-zeatin, 30° C. for 30 hours
Method: (§1) After incubation, the growth state of the transformed cells was observed and photographed by a digital camera.

[2] = tested on: transformed cells TM182-CYC1-ADHIPT5; conditions: TM182-CYC1-ADHIPT5, DOHLU+Glu agar containing 10 μM trans-zeatin, 30° C. for 30 hours
Method: as §1

[3] = tested on: transformed cells TM182-AHK2-CYC1IPT5; conditions: TM182-AHK2-CYC1IPT5, DOHLU+Glu agar containing 10 μM trans-zeatin, 30° C. for 30 hours
Method: as §1

[4] = tested on: transformed cells TM182-CRE1-CYC1IPT4; conditions: TM182-CRE1-CYC1IPT4, DOHLU+Glu agar containing 10 μM trans-zeatin, 30° C. for 30 hours
Method: as §1

[5] = tested on: transformed cells TM182-CYC1-CYC1IPT4; conditions: TM182-CYC1-CYC1IPT4, DOHLU+Glu agar containing 10 μM trans-zeatin, 30° C. for 30 hours
Method: as §1

[6] = tested on: transformed cells TM182-AHK2-ADHIPT5; conditions: TM182-AHK2-ADHIPT5, DOHLU+Glu agar containing 10 μM trans-zeatin, 30° C. for 30 hours
Method: as §1

[7] = tested on: transformed cells TM182-CYC1-CYC1IPT5; conditions: TM182-CYC1-CYC1IPT5, DOHLU+Glu agar containing 10 μM trans-zeatin, 30° C. for 30 hours
Method: as §1

[8] = tested on: transformed cells TM182-AHK2-ADHIPT4; conditions: TM182-AHK2-ADHIPT4, DOHLU+Glu agar containing 10 μM trans-zeatin, 30° C. for 30 hours
Method: as §1

[9] = tested on: transformed cells TM182-AHK2-CYC1IPT4; conditions: TM182-AHK2-CYC1IPT4, DOHLU+Glu agar containing 10 μM trans-zeatin, 30° C. for 30 hours
Method: as §1

Row | Compound | optical density (OD620) of the culture solution (cytokinin receptor AHK2) | growth state of the transformed cells [1] | growth state of the transformed cells [2] | growth state of the transformed cells [3] | growth state of the transformed cells [4] | growth state of the transformed cells [5] | growth state of the transformed cells [6] | growth state of the transformed cells [7] | growth state of the transformed cells [8] | growth state of the transformed cells [9]
1 | CC1=CC(=O)CC(C)(C)[C@@]1(O)/C=C/C(C)=C\C(=O)O [Compound A, Abscisic acid] | 0.01 |  |  |  |  |  |  |  |  | 
2 | c1ccc(CNc2ncnc3nc[nH]c23)cc1 [Compound B, 6-Benzyl aminopurine] | 0.45 |  |  |  |  |  |  |  |  | 
3 | C/C(=C\CNc1ncnc2nc[nH]c12)CO [trans-zeatin] |  | not observed to grow | not observed to grow | observed to grow | observed to grow | not observed to grow | observed to grow | not observed to grow | observed to grow | observed to grow
